Experiments:
Tenebrio molitor [1] = experiment: Growth inhibition of topically dosed Tenebrio molitor larvae assessed as duration of pupal instar stage at 120 ug measured every 24 hrs for 60 days; assay type: functional
Tenebrio molitor [2] = experiment: Growth inhibition of topically dosed Tenebrio molitor larvae assessed as imaginal molt inhibition at 120 ug; assay type: functional

Structure (SMILES) | Activity (Tenebrio molitor [1]) | Inhibition (Tenebrio molitor [2])
COC(=O)/C(=C/CCc1ccoc1)CC/C=C(\CC[C@H](O)C(C)(C)O)C(=O)OC | 12.1 days | –
COC(=O)/C(=C/CC/C(=C\CCc1ccoc1)C(=O)OC)CCC=C(C)C | 7.4 days | 34.3%
CC(C)=CCC/C(=C\CC/C(=C\CCC1=CCOC1=O)C(=O)O)C(=O)O | 5.09 days | 24.1%
CC(C)=CCC/C(=C\CC/C(=C\CCc1ccoc1)C(=O)O)C(=O)O | 10.7 days | 33.6%
CC(C)=CCC[C@](O)(CO)[C@H]1CC/C(=C\CCc2ccoc2)CO1 | 16.2 days | 14.4%
CC(C)=CCC/C(=C/CC/C(=C\CCc1ccoc1)C(=O)O)C(=O)O | 4.7 days | –
CC(C)=CCC/C(=C\CC/C(=C\CCc1ccoc1)CO)CO | 5.3 days | –
COC(=O)/C(=C\CC/C(=C\CCc1ccoc1)C(=O)OC)CC[C@H](O)C(C)(C)O | 10 days | –
COC(=O)/C(=C/CCc1ccoc1)CC/C=C1\CC[C@H](C(C)(C)O)OC1=O | 11.2 days | –
COC(=O)/C(=C\CC/C(=C\CCc1ccoc1)C(=O)OC)CC[C@@H](O)C(C)(C)O | 11.2 days | –
COC(=O)/C(=C/CCc1ccoc1)CC/C=C(\CC[C@@H](O)C(C)(C)O)C(=O)OC | 12 days | –
COC(=O)/C(=C\CC/C(=C\CCc1ccoc1)C(=O)OC)CCC=C(C)C | 6 days | –
CC(C)=CCC[C@@](O)(CO)[C@@H]1CC/C(=C\CCc2ccoc2)CO1 | 12 days | –
CC(C)=CCC[C@](O)(CO)[C@H]1CC[C@@]2(CO1)OC2CCc1ccoc1 (single isomer, unassigned) | 9.9 days | 30.8%
CC(C)=CCC[C@@]1(CO)OC1CC[C@@]1(CO)OC1CCc1ccoc1 (single isomer, unassigned) | 12.7 days | –
CC(C)=CCC[C@@](O)(CO)[C@@H]1CC[C@]2(CO1)OC2CCc1ccoc1 (single isomer, unassigned) | 10.6 days | –
